In patent publication US20090005384A1, “Method for Producing Adsorptive Porous Body” (Kowa Co., Ltd, priority 2005, published 2009):

Key:
[1] = Adsorption test to porous material; format: physicochemical; settings: for Amount of adsorbed Compound A: shaken for two hours
Description: To a solution prepared by completely dissolving 1.5 mg of Compound A in 1.5 mL of dichloromethane, 15 mg of porous material (light anhydrous silicic acid (Sylysia 350, produced by Fuji Silysia Chemical Co., Ltd.) or silicon dioxide (Sylysia 530, produced by Fuji Silysia Chemical Co., Ltd.) was dispersed, and this mixture was shaken for two hours using Roter RT-50 (TAITEC) and an amount of Compound A which adsorbed simply to the light anhydrous silicic acid or silicon dioxide (μg/mg porous material) was calculated by measuring the absorbance (280 nm) of a filtrate obtained by filtering with a membrane filter (0.45 μm PTFE). The amount of Compound A which adsorbed simply to the light anhydrous silicic acid or silicon dioxide ([…] porous material) was calculated by the following computational expression.
Concentration of Compound A in the filtrate (μg/mL)=ABS÷Slope of analytical curve×Dilution ratio
Here, ABS represents the absorbance.
Amount of adsorbed Compound A (g/mg porous material)=(Concentration of Compound A before the porous material was dispersed (g/mL)−Concentration of Compound A in the filtrate (g/mL))×Volume of Compound A solution (mL)÷Mass of porous material (mg)
Calculation was also conducted using ethanol in place of dichloromethane as a comparison.

[2] = cited from earlier work
[3] = Differential scanning calorimetry analysis; format: physicochemical; settings: when dichloromethane was used
[4] = test system: interleukin-lp production; settings: known from Patent Document 1; cited from earlier work

Amount of adsorbed Compound A ([1]; Dichloromethane, light anhydrous silicic acid (Sylysia 350)): 17.6 μg/mg porous material
Amount of adsorbed Compound A ([1]; Dichloromethane, silicon dioxide (Sylysia 530)): 24.8 μg/mg porous material
Amount of adsorbed Compound A ([1]; Ethanol, light anhydrous silicic acid (Sylysia 350)): 0.0 μg/mg porous material
Amount of adsorbed Compound A ([1]; Ethanol, silicon dioxide (Sylysia 530)): 0.0 μg/mg porous material
Adsorption of Compound A to the porous material (in words) ([1]; dichloromethane, light anhydrous silicic acid): adsorbed
Adsorption of Compound A to the porous material (in words) ([1]; dichloromethane, silicon dioxide): adsorbed
Adsorption of Compound A to the porous material (in words) ([1]; ethanol, light anhydrous silicic acid): did not adsorb
Adsorption of Compound A to the porous material (in words) ([1]; ethanol, silicon dioxide): did not adsorb
Solid state of Compound A [3]: existed in amorphous state
SMILES: CSc1ccc(-c2nn(Cc3ccccc3)c(=O)cc2-c2ccc(Cl)cc2)cc1 [Compound A, 2-benzyl-5-(4-chlorophenyl)-6-[4-(methylthio)phenyl]-2H-pyridazin-3-one]
Solubility in water [2]: extremely insoluble
interleukin-lp production suppressive effect [4]: excellent
